Measured values reported in US8962609B2, “Pyrimidine compounds as inhibitors of protein kinases IKK epsilon and/or TBK-1, processes for their preparation, and pharmaceutical compositions containing them” (Domainex Limited, priority 2010, dated 2015).

What was measured:
IKKε = IKKε (Homo sapiens (Human), UniProt Q14164); experiment: IKKε time-resolved fluorescence Lanthascreen kinase inhibition assay; type: biochemical; conditions: 20 μM ATP (apparent Km), 2 nM kinase, 1 hr; values are activity bands; read-out: Inhibition of IKKε IC50
Sequence of IKKε (Q14164 whole entry): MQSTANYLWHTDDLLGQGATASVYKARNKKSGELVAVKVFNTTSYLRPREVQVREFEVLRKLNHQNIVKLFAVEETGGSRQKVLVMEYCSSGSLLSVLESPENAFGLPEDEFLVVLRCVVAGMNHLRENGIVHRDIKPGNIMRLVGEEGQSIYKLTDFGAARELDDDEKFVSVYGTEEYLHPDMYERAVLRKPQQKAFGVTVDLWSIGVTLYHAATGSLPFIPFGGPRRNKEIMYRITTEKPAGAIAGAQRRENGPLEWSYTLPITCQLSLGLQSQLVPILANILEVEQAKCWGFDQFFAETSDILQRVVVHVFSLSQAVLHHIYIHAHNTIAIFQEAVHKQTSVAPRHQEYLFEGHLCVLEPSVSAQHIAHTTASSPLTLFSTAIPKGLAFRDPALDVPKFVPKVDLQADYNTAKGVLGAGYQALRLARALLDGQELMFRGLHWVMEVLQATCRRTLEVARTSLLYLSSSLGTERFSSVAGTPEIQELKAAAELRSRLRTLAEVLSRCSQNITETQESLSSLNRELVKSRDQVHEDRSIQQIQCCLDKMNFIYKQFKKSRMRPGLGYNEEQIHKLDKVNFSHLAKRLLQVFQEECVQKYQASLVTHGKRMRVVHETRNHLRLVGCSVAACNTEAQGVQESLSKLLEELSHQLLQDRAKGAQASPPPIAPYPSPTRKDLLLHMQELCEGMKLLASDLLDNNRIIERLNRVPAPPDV
Procedure: (§1) Compounds of the invention (synthesised as described below) were tested for activity against the IKKε and TBK-1 enzyme as follows:
(§2) Inhibitions studies were performed using a time-resolved fluorescence-based Lanthascreen™ assay. Phosphorylation of a fluorescein-labelled substrate peptide is measured using terbium-labeled phosphospecific antibodies. Terbium is excited at 340 nm and the FRET energy transfer to fluorescein is measured at 495 and 520 nm. The emission ratio between 520 and 495 is a measure of the level of phosphorylation of the substrate by the kinase.
(§3) Kinase inhibition assays (10 μL) were performed at 20° C. in 384-well plate format. Compound IC50 values were determined at the apparent Km for ATP (20 μM) based on a radiometric assay (Invitrogen) using 8 or 10 point curves in duplicate. The final reaction conditions contained 400 nM fluorescein-IkBα substrate ([…]), 20 μM ATP, 2 nM or 8 nM IKKε or TBK1 kinase respectively, and 3% DMSO in kinase assay buffer consisting of 50 mM HEPES (pH 7.5), 10 mM MgCl, 1 mM EGTA, 0.01% Brij-35.
(§4) Compound dilutions were prepared from 10 mM DMSO stocks by dilution into DMSO.
(§5) The kinase phosphorylation assay was initiated by the addition of the kinase and the reaction was allowed to proceed for 1 hr or 2.5 hr for IKKε and TBK-1 kinase respectively. […] The reaction was stopped by the addition of 10 mM EDTA, and phosphorylation was detected after a 1 hr incubation with 1.5 nM terbium-labelled antibody against phosphorylation at Serine 32 on the IkBα[…]peptide, both in TR-FRET dilution buffer (Invitrogen).
(§6) In the data presented for IKKε, <9 μM means having an activity in the range from 300 nM≦9 μM; and <300 nM means having an activity in the range 30 nM≦300 nM; and for the data presented for TBK-1, <3 μM means having an activity in the range 300 nM≦3 μM, and <300 nM means having an activity in the range 30 nM≦300 nM.

TBK-1 = TBK-1 (Homo sapiens (Human), UniProt Q9UHD2); experiment: biochemical; conditions: 20 μM ATP (apparent Km), 8 nM kinase, 2.5 hr; values are activity bands; read-out: Inhibition of TBK-1 IC50
Sequence of TBK-1 (Q9UHD2 whole entry): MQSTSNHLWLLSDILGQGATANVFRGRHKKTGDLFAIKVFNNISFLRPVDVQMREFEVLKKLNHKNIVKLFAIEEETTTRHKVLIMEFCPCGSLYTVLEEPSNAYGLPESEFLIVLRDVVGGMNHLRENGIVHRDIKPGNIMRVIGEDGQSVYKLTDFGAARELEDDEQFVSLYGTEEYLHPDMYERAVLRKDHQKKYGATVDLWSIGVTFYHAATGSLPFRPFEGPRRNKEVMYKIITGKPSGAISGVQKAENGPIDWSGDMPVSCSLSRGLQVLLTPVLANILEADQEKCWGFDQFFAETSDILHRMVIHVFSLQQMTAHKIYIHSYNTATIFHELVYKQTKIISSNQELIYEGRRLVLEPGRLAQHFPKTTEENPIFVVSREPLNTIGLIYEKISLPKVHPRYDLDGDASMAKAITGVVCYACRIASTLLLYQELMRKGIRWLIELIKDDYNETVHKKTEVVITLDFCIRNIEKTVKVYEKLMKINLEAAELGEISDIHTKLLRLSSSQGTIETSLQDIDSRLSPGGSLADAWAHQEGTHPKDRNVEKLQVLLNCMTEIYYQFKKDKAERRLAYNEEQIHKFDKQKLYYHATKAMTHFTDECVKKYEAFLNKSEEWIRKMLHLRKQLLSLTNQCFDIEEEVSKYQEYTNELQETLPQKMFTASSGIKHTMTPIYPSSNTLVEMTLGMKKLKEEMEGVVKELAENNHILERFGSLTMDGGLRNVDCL
Procedure: as §1, §2, §3, §4, §5, §6

| SMILES | IC50 (IKKε) [nM] | IC50 (TBK-1) [nM] |
| --- | --- | --- |
| N#Cc1cc(-c2ccnc(Nc3cccc(C(F)(F)F)c3)n2)ccc1N1CCCC1 [DMX-2] | 300 to 9000 |  |
| N#Cc1cc(-c2ccnc(Nc3cccc(F)c3)n2)ccc1N1CCCC1 [DMX-3] | 30 to 300 |  |
| N#Cc1cc(-c2ccnc(Nc3ccc(F)cc3)n2)ccc1N1CCCC1 [DMX-4] | 30 to 300 |  |
| COc1cccc(Nc2nccc(-c3ccc(N4CCCC4)c(C#N)c3)n2)c1 [DMX-5] | < 30 |  |
| COc1ccc(Nc2nccc(-c3ccc(N4CCCC4)c(C#N)c3)n2)cc1 [DMX-6] | < 30 |  |
| CC(=O)Nc1cccc(Nc2nccc(-c3ccc(N4CCCC4)c(C#N)c3)n2)c1 [DMX-7] | < 30 | < 30 |
| CS(=O)(=O)c1cccc(Nc2nccc(-c3ccc(N4CCCC4)c(C#N)c3)n2)c1 [DMX-10] | < 30 | < 30 |
| N#Cc1cc(-c2ccnc(Nc3ccccc3)n2)ccc1N1CCCC1 [DMX-11] | 300 to 9000 |  |
| N#Cc1cc(-c2ccnc(Nc3ccncc3)n2)ccc1N1CCCC1 [DMX-12] | 300 to 9000 |  |
| N#Cc1cc(-c2ccnc(Nc3ccccn3)n2)ccc1N1CCCC1 [DMX-13] | 300 to 9000 |  |
| CC(=O)Nc1ccc(Nc2nccc(-c3ccc(N4CCCC4)c(C#N)c3)n2)cn1 [DMX-15] | < 30 | < 30 |
| N#Cc1cc(-c2ccnc(Nc3ccc4c(c3)NC(=O)CC4)n2)ccc1N1CCCC1 [DMX-17] | < 30 | < 30 |
| N#Cc1cc(-c2ccnc(Nc3cccnc3)n2)ccc1N1CCCC1 [DMX-18] | < 30 |  |
| CN1CCN(c2ccc(Nc3nccc(-c4ccc(N5CCCC5)c(C#N)c4)n3)cn2)CC1 [DMX-19] | < 30 | < 30 |
| CN(C)c1ccc(Nc2nccc(-c3ccc(N4CCCC4)c(C#N)c3)n2)cn1 [DMX-20] | < 30 | < 30 |
| Cc1cc(C(N)=O)ccc1Nc1nccc(-c2ccc(N3CCCC3)c(C#N)c2)n1 [DMX-21] | 30 to 300 | 30 to 300 |
| N#Cc1cc(-c2ccnc(Nc3cccc(NC(=O)N4CCCC4)c3)n2)ccc1N1CCCC1 [DMX-22, Pyrrolidine-1-carboxylic acid {3-[4-(3-cyano-4-pyrrolidin-1-yl-phenyl)-pyrimidin-2-ylamino]-phenyl}-amide] | < 30 | < 30 |
| Cc1cc(Nc2nccc(-c3ccc(N4CCCC4)c(C#N)c3)n2)no1 [DMX-25] | 300 to 9000 |  |
| Cc1cc(Nc2nccc(-c3ccc(N4CCCC4)c(C#N)c3)n2)on1 [DMX-26] | 30 to 300 | 30 to 300 |
| Cn1nccc1Nc1nccc(-c2ccc(N3CCCC3)c(C#N)c2)n1 [DMX-27] | 30 to 300 | < 30 |
| Cn1ccc(Nc2nccc(-c3ccc(N4CCCC4)c(C#N)c3)n2)n1 [DMX-29] | 30 to 300 | 30 to 300 |
| Cc1cnc(Nc2nccc(-c3ccc(N4CCCC4)c(C#N)c3)n2)s1 [DMX-30] | 300 to 9000 |  |
| Cc1csc(Nc2nccc(-c3ccc(N4CCCC4)c(C#N)c3)n2)n1 [DMX-32] | 300 to 9000 |  |
| CN(C)CCNc1ccc(Nc2nccc(-c3ccc(N4CCCC4)c(C#N)c3)n2)cn1 [DMX-33] | < 30 | < 30 |
| CN(C)CCN(C)c1ccc(Nc2nccc(-c3ccc(N4CCCC4)c(C#N)c3)n2)cn1 [DMX-34] | < 30 | < 30 |
| CC(=O)N(C)c1ccc(Nc2nccc(-c3ccc(N4CCCC4)c(C#N)c3)n2)cc1 [DMX-37] | < 30 | < 30 |
| N#Cc1cc(-c2ccnc(Nc3ncc(C(N)=O)o3)n2)ccc1N1CCCC1 [DMX-38] | 300 to 9000 |  |

| SMILES | IC50 (IKKε) [nM] | IC50 (TBK-1) [nM] |
| --- | --- | --- |
| N#Cc1cc(-c2ccnc(Nc3nc(C(N)=O)co3)n2)ccc1N1CCCC1 [DMX-39] | 300 to 9000 |  |
| Cn1nc(Nc2nccc(-c3ccc(N4CCCC4)c(C#N)c3)n2)cc1C(N)=O [DMX-40] | 30 to 300 |  |
| Cn1nc(C(N)=O)cc1Nc1nccc(-c2ccc(N3CCCC3)c(C#N)c2)n1 [DMX-41] | 30 to 300 |  |
| N#Cc1cc(-c2ccnc(Nc3cccc(C(=O)O)c3)n2)ccc1N1CCCC1 [DMX-42] | < 30 |  |
| CN1CCN(C(=O)c2cccc(Nc3nccc(-c4ccc(N5CCCC5)c(C#N)c4)n3)c2)CC1 [DMX-43] | < 30 |  |
| CN1CCC(NC(=O)c2cccc(Nc3nccc(-c4ccc(N5CCCC5)c(C#N)c4)n3)c2)CC1 [DMX-44] | < 30 |  |
| CN(C)CCNC(=O)c1cccc(Nc2nccc(-c3ccc(N4CCCC4)c(C#N)c3)n2)c1 [DMX-45] | < 30 |  |
| CC(=O)Nc1ccc(Nc2nccc(-c3ccc(N4CCOCC4)c(C#N)c3)n2)cn1 [DMX-46] | 30 to 300 | < 30 |
| CC(=O)Nc1ccc(Nc2nccc(-c3ccc(N4CCN(C)CC4)c(C#N)c3)n2)cn1 [DMX-47] | 30 to 300 | 30 to 300 |
| CC(=O)Nc1ccc(Nc2nccc(-c3ccc(N4CC[C@H](O)C4)c(C#N)c3)n2)cn1 [DMX-48] | < 30 | < 30 |
| CN(C)CC(=O)Nc1ccc(Nc2nccc(-c3ccc(N4CCCC4)c(C#N)c3)n2)cn1 [DMX-49] | < 30 | < 30 |
| CC(=O)Nc1ccc(Nc2nccc(-c3ccc(N4CCC(C(N)=O)CC4)c(C#N)c3)n2)cn1 [DMX-50, 1-{4-[2-(6-Acetylamino-pyridin-3-ylamino)-pyrimidin-4-yl]-2-cyano-phenyl}-piperidine-4-carboxylic acid amide] | < 30 | 30 to 300 |
| CC(=O)Nc1ccc(Nc2nccc(-c3ccc(N4CCC[C@@H]4C(N)=O)c(C#N)c3)n2)cn1 [DMX-51] | 30 to 300 | 30 to 300 |
| Cn1nccc1Nc1nccc(-c2ccc(N3CC[C@H](O)C3)c(C#N)c2)n1 [DMX-52] | 30 to 300 | 30 to 300 |
| Cn1nccc1Nc1nccc(-c2ccc(N3CCC[C@@H]3C(N)=O)c(C#N)c2)n1 [DMX-53] | 30 to 300 | 300 to 3000 |
| CN1CCN(c2ccc(Nc3nccc(-c4ccc(N5CC[C@H](O)C5)c(C#N)c4)n3)cn2)CC1 [DMX-54] | < 30 | < 30 |
| CN1CCN(c2ccc(Nc3nccc(-c4ccc(N5CCC[C@@H]5C(N)=O)c(C#N)c4)n3)cn2)CC1 [DMX-55] | < 30 | < 30 |
| Cn1cnc(Nc2nccc(-c3ccc(N4CCCC4)c(C#N)c3)n2)c1 [DMX-57] | 30 to 300 | 30 to 300 |
| COc1ccc(Nc2nccc(-c3ccc(N4CCCC4)c(C#N)c3)n2)cn1 [DMX-58] | < 30 | < 30 |
| N#Cc1cc(-c2ccnc(Nc3ccn(CC(N)=O)n3)n2)ccc1N1CCCC1 [DMX-59] | 30 to 300 | 30 to 300 |
| Cn1cncc1Nc1nccc(-c2ccc(N3CCCC3)c(C#N)c2)n1 [DMX-60] | 30 to 300 | 30 to 300 |
| CN(C)CCOc1ccc(Nc2nccc(-c3ccc(N4CCCC4)c(C#N)c3)n2)cn1 [DMX-61] | < 30 | < 30 |
| CN(C)CCNc1ccc(Nc2nccc(-c3ccc(N4CC[C@H](O)C4)c(C#N)c3)n2)cn1 [DMX-62] | < 30 | < 30 |
| C[C@H]1CCCN1c1ccc(-c2ccnc(Nc3ccc(NCCN(C)C)nc3)n2)cc1C#N [DMX-63] | < 30 | < 30 |
| CN(C)CCNc1ccc(Nc2nccc(-c3ccc(N4CCC(C(N)=O)CC4)c(C#N)c3)n2)cn1 [DMX-64] | < 30 | 30 to 300 |
| CN(C)CCNc1ccc(Nc2nccc(-c3ccc(N4CCC(O)CC4)c(C#N)c3)n2)cn1 [DMX-65] | 30 to 300 | 30 to 300 |
| CNC(=O)[C@H]1CCCN1c1ccc(-c2ccnc(Nc3ccc(NC(C)=O)nc3)n2)cc1C#N [DMX-67] | 300 to 9000 | < 9000 |
